Measurements taken from patent US9428813B2, “DNA methylation analysis for the diagnosis, prognosis and treatment of adrenal neoplasms” (The United States of America, as Represented by the …, priority 2012, dated 2016).

Tested on: NCI-H295R cells
Assay: Gene expression in decitabine-treated NCI-H295R adrenocortical cells
Type: cell-based
Conditions: human adrenocortical cells; including H19, S100A10, HOPX, ERBB3 and RUNX2
Experimental: Studies were performed on human adrenocortical cells and the effect of decitabine on gene-expression of HTN3, H19, S100A10, FAM129A, HOPX, TAC1, UCHL1, ERBB3, BEGNT5, RUNX2, GJA3, and BGN was evaluated. […] As such, these studies indicate that demethylating agents are agents capable of regulating malignant adrenocortical tumor-related molecules and can be used to treat ACC.

Nc1ncn([C@H]2C[C@H](O)[C@@H](CO)O2)c(=O)n1 [Decitabine, 5-azadeoxycytidine]
Effect on expression of malignant adrenocortical tumor-related molecules: significantly alter the expression
